The record followed here is PubChem BioAssay AID743471 (Broad Institute, 2014).

Activity calls are given as the source filed them.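 Rule for the calls: active = fitted curve drops past -35% activity change at a concentration up to twice the top valid tested dose; inactive = the rest, including activity in the opposite direction.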

Test system in one test: not listed separately
Kind of test: HepG2 cell cytotoxicity, dose response, cytotoxicity control, luminescence, dry powder, set 12 (AID 743471). The note with it: HepG2 viability, ATP luminescence (CellTiter-Glo), 72 h; at 0.8 µM (top of the series). In general terms: In ATP-based viability assays light output follows the ATP content of the culture.
For `CC[C@]1(O)CC2CN(CCc3c([nH]c4ccccc34)[C@@](C(=O)OC)(c3cc4c(cc3OC)N(C=O)[C@H]3[C@@](O)(C(=O)OC)[C@H](OC(C)=O)[C@]5(CC)C=CCN6CC[C@]43[C@@H]65)C2)C1` (stereo partly drawn), the activity change, negative = cytotoxicity was -12.1% (inactive).

In the case of `CCN(CCO)CCCOc1ccc2c(Nc3cc(CC(=O)Nc4cccc(F)c4)[nH]n3)ncnc2c1`, the activity change, negative = cytotoxicity was 6.31% (inactive).

The test is the same for the next values; noted with them: HepG2 viability, ATP luminescence (CellTiter-Glo), 72 h; at 1.35 µM (top of the series).
With `COc1cc([C@@H]2c3cc4c(cc3[C@@H](O[C@@H]3O[C@@H]5CO[C@@H](C)O[C@H]5[C@H](O)[C@H]3O)[C@H]3COC(=O)[C@H]23)OCO4)cc(OC)c1O`, the activity change, negative = cytotoxicity is -5.5% (inactive).

The same test, now with this note: HepG2 viability, ATP luminescence (CellTiter-Glo), 72 h; at 8 µM (top of the series).
As for `COc1cccc(S(=O)(=O)N2CC[C@@H]3[C@@H](CO)Nc4ccc(-c5ccc(C#N)cc5)cc4[C@@H]32)c1`, the activity change, negative = cytotoxicity was 25.7% (inactive). On the same count and under the same terms, as for `N#CC1=C(N)Oc2cc3c(cc2C1c1cccc(Br)c1)OCO3` (stereo not drawn), the figure is -4.83% (inactive).

The same test, now with this note: HepG2 viability, ATP luminescence (CellTiter-Glo), 72 h; at 12 µM (top of the series).
In the case of `COc1ccc(OC)c(-c2nnc3n2N=C(c2ccc(OC)c(OC)c2)CS3)c1`, the activity change, negative = cytotoxicity is -16.5% (inactive). Regarding `O=C(Cc1ccc(-c2ccc(OCCN3CCOCC3)cc2)cn1)NCc1ccccc1`, the activity change, negative = cytotoxicity was -10.2% (inactive). Same read-out and setting: the result for `C[C@@]1(C(=O)Nc2ccc(F)nc2)CCCN1c1nc(Nc2cc(C3CC3)[nH]n2)c2cccn2n1` reads -31.6% (inactive). As to `COc1ccc(NC(=O)Nc2ccc3c(c2)C(=O)N([C@@H](C)CO)C[C@H](C)[C@H](CN(C)Cc2ccc4c(c2)OCO4)O3)cc1`, the activity change, negative = cytotoxicity is -13.2% (inactive).

Still in this test, the particulars now being: HepG2 viability, ATP luminescence (CellTiter-Glo), 72 h; at 26 µM (top of the series).
`CN(C(=O)CCCOc1ccc2[nH]c(=O)ccc2c1)C1CCCCC1`: the activity change, negative = cytotoxicity is -11.4% (inactive). Take `CN(C)c1ccc2c(c1)OC(N)=C(C#N)C2c1cccc(F)c1` (stereo not drawn): the activity change, negative = cytotoxicity was -8.25% (inactive). The same measure, in the same setting: as for `N#Cc1ccc(-c2ccc3c(c2)[C@H]2[C@H](CCN2S(=O)(=O)c2ccccc2F)[C@@H](CO)N3)cc1`, the figure is -18.6% (inactive); as for `CN1c2ccc(-c3ccc(C#N)cc3)cc2[C@H]2[C@H](CCN2S(=O)(=O)c2cccc(F)c2)[C@H]1CO`, -20.9% (inactive). `C[C@]1(c2nc3c(C(N)=O)cccc3[nH]2)CCCN1`: the activity change, negative = cytotoxicity was -5.99% (inactive). On the same count and under the same terms, the result for `COc1cc(C2C(C#N)=C(N)Oc3cc(N(C)C)ccc32)cc2c1OCO2` (stereo not drawn) reads -11.7% (inactive); that for `COc1ccc(OC)c(-c2nnc3n2N=C(c2ccc(OC)c(OC)c2)CS3)c1`, -21.2% (inactive).

As for `N#CC1=C(N)Oc2cc(N)ccc2C1c1ccc2ccccc2c1` (stereo not drawn), the activity change, negative = cytotoxicity is -25.4% (inactive). Take `N#CC1=C(N)Oc2cc(N)ccc2C12C(=O)Nc1ccc(Br)cc12` (stereo not drawn): the activity change, negative = cytotoxicity is -10.7% (inactive). Still for that read-out and setting: the result for `COc1ccccc1-c1nnc2n1N=C(c1ccc3c(c1)OCO3)CS2` reads -11.4% (inactive). On the same count and under the same terms, the result for `Cc1ccc(C2C(C#N)=C(N)Oc3cc(N)ccc32)cc1` (stereo not drawn) reads 1.29% (inactive); that for `COc1ccc(CNc2nc(N3CCC[C@H]3CO)ncc2C(=O)NCc2ncccn2)cc1Cl`, -10.6% (inactive).

For `CCC(C)(C)C(=O)O[C@H]1C[C@@H](C)C=C2C=C[C@H](C)[C@H](CC[C@@H]3C[C@@H](O)CC(=O)O3)[C@H]21`, the activity change, negative = cytotoxicity was 1.04% (inactive).

As to `COc1ccccc1C1C(C#N)=C(N)Oc2cc(N)ccc21` (stereo not drawn), the activity change, negative = cytotoxicity was 4.04% (inactive). For `Cc1c([C@H](C(Cl)Cl)[C@H](O)[C@H]2C[C@H](C)C(=O)O2)ccc2c1C(=O)[C@H]1[C@H]2C[C@@H](Br)[C@@]23O[C@@H](CO[C@H]2O)C[C@]13C`, the activity change, negative = cytotoxicity is -19.2% (inactive). `COc1ccc(C2CNC(=O)C2)cc1OC1CCCC1` (stereo not drawn): the activity change, negative = cytotoxicity was 15.7% (inactive). Consider `COc1ccc(S(=O)(=O)N2CC[C@@H]3[C@@H](CO)N(C)c4ccc(-c5ccc(F)cc5)cc4[C@@H]32)cc1`, for which the activity change, negative = cytotoxicity was -2.59% (inactive).

Regarding `Cc1cccc(C2C(C#N)=C(N)Oc3cc(N)ccc32)c1` (stereo not drawn), the activity change, negative = cytotoxicity is -14.7% (inactive). Still for that read-out and setting: the result for `N#CC1=C(N)Oc2cc(N)ccc2C1c1cccc(F)c1` (stereo not drawn) reads -15.7% (inactive); that for `COC(=O)c1ccc(C2C(C#N)=C(N)Oc3cc(N)ccc32)cc1` (stereo not drawn), 6.98% (inactive); that for `CN1c2ccc(-c3ccc(C#N)cc3)cc2[C@H]2[C@H](CCN2S(=O)(=O)c2ccc(F)cc2)[C@H]1CO`, 20.9% (inactive). For the compound `Clc1ccccc1-c1nnc2n1N=C(c1ccc3c(c1)OCO3)CS2`, the activity change, negative = cytotoxicity is -25.1% (inactive). On to `CCCCc1ccc2nc(NC(=O)OC)[nH]c2c1`, for which the activity change, negative = cytotoxicity is -18.5% (inactive).

As for `N#CC1=C(N)Oc2cc(N)ccc2C1c1cccc(Br)c1` (stereo not drawn), the activity change, negative = cytotoxicity is -3.92% (inactive). Regarding `N#CC1=C(N)Oc2cc(N)ccc2C1c1ccc(Cl)cc1` (stereo not drawn), the activity change, negative = cytotoxicity is -15.5% (inactive). The same measure, in the same setting: as for `COc1ccc(S(=O)(=O)N(C(C)=O)c2ccc(OC(C)=O)c3ccccc23)cc1[N+](=O)[O-]`, the figure is -15.5% (inactive); as for `Cc1ccc(S(=O)(=O)N2CC[C@@H]3[C@@H](CO)Nc4ccc(-c5ccc(C#N)cc5)cc4[C@@H]32)cc1`, -7.83% (inactive); as for `COc1cc(Nc2ncc3c(n2)-c2ccc(Cl)cc2C(c2c(F)cccc2OC)=NC3)ccc1C(=O)O`, -12.9% (inactive).

Consider `Cc1ccccc1C1C(C#N)=C(N)Oc2cc(N)ccc21` (stereo not drawn), for which the activity change, negative = cytotoxicity is 0.564% (inactive). With `COc1ccc(C2C(C#N)=C(N)Oc3cc(N)ccc32)cc1` (stereo not drawn), the activity change, negative = cytotoxicity is -5.71% (inactive). Turning to `COc1cccc(C2C(C#N)=C(N)Oc3cc(N)ccc32)c1` (stereo not drawn), the activity change, negative = cytotoxicity is -11.2% (inactive). For the compound `COc1ccccc1S(=O)(=O)N1CC[C@@H]2[C@@H](CO)Nc3ccc(-c4ccc(C#N)cc4)cc3[C@@H]21`, the activity change, negative = cytotoxicity was -11.4% (inactive).

`COc1ccc(S(=O)(=O)N2CC[C@@H]3[C@H](CO)Nc4ccc(-c5ccc(C#N)cc5)cc4[C@@H]32)cc1`: the activity change, negative = cytotoxicity is -32.1% (inactive). On the same count and under the same terms, the result for `N#CC1=C(N)Oc2cc(OC(=O)c3ccccc3)ccc2C1c1cccc(Br)c1` (stereo not drawn) reads -8.31% (inactive); that for `Cc1ccc([N+](=O)[O-])cc1S(=O)(=O)N(C)C`, -2.85% (inactive).

In the case of `N#CC1=C(N)Oc2cc(N)ccc2C1c1ccccc1Cl` (stereo not drawn), the activity change, negative = cytotoxicity was -2.14% (inactive). Same read-out and setting: as for `O=C(Nc1c(Cl)cncc1Cl)c1ccc(OC(F)F)c(OCC2CC2)c1`, the figure is 5.78% (inactive).

The test is the same for the next values; noted with them: HepG2 viability, ATP luminescence (CellTiter-Glo), 72 h; at 50 µM (top of the series).
Consider `O=P1(NCCCl)OCCCN1CCCl` (stereo not drawn), for which the activity change, negative = cytotoxicity is 7.58% (inactive).

Staying with this test, now noted: HepG2 viability, ATP luminescence (CellTiter-Glo), 72 h; at 110 µM (top of the series).
As to `O=C(c1cc(Cc2n[nH]c(=O)c3ccccc23)ccc1F)N1CCN(C(=O)C2CC2)CC1`, the activity change, negative = cytotoxicity was -17.3% (inactive).

A further test deals with HepG2 viability, ATP luminescence (CellTiter-Glo), 72 h. The test is described as above.
Conditions: not given
`COc1ccc(S(=O)(=O)N2CC[C@@H]3[C@@H](CO)Nc4ccc(-c5ccc(C#N)cc5)cc4[C@@H]32)cc1`: the AC35 is 12.2 µM. For the compound `COc1ccc(-c2ccc3c(c2)[C@H]2[C@H](CCN2S(=O)(=O)c2ccc(OC)cc2)[C@@H](CO)N3)cc1`, the AC35 was 21.2 µM.

In the case of `CC(C)(O)CCc1ccc(O)c2c(=O)c3c(O)c4c(cc3oc12)O[C@H]1OC=C[C@@]41O`, the AC35 was 0.065 µM. Still for that read-out and setting: as for `COc1ccc(C(=O)CC2(O)C(=O)Nc3c(Cl)ccc(Cl)c32)cc1` (stereo not drawn), the figure is 8.13 µM; as for `Cc1nc(Nc2ncc(C(=O)Nc3c(C)cccc3Cl)s2)cc(N2CCN(CCO)CC2)n1`, 12.5 µM; as for `CN1CCN(CCOc2cc(OC3CCOCC3)c3c(Nc4c(Cl)ccc5c4OCO5)ncnc3c2)CC1`, 25.4 µM. Still for that read-out and setting: as for `COc1ccc(S(=O)(=O)N2CC[C@@H]3[C@@H](CO)Nc4ccc(-c5cccc(C#N)c5)cc4[C@@H]32)cc1`, the figure is 14.9 µM; as for `Nc1ncnc2c1c(-c1cccc(OCc3ccccc3)c1)cn2C1CC(CN2CCCC2)C1` (stereo not drawn), 9.61 µM; as for `COc1ccc(-c2ccc3c(c2)[C@H]2[C@H](CCN2S(=O)(=O)c2ccc(OC)cc2)[C@@H](CO)N3C)cc1`, 21.4 µM. Consider `CCc1c2c(nc3ccc(O)cc13)-c1cc3c(c(=O)n1C2)COC(=O)C3(O)CC` (stereo not drawn), for which the AC35 is 0.241 µM. In the case of `Cc1cc(Nc2cc(N3CCN(C)CC3)nc(Sc3ccc(NC(=O)C4CC4)cc3)n2)n[nH]1`, the AC35 is 8.49 µM. For `N#CC1=C(N)Oc2cc(O)ccc2C1c1cccc(Br)c1` (stereo not drawn), the AC35 was 13.7 µM.

Consider `N#Cc1ccc(-c2ccc3c(c2)[C@H]2[C@H](CCN2S(=O)(=O)c2cccc(F)c2)[C@@H](CO)N3)cc1`, for which the AC35 is 24.5 µM.

On to `CC(C)N1c2ccccc2C(c2ccc(F)cc2)C1/C=C/C(O)CC(O)CC(=O)O` (stereo not drawn), for which the AC35 was 22.3 µM. For the compound `COc1ccc(-c2cc(NC(C)=O)c3ncc(-c4ccc(OC)c(OC)c4)n3c2)cc1`, the AC35 is 17.9 µM. As to `N#CC1=C(N)Oc2cc(N)ccc2C1c1ccccc1` (stereo not drawn), the AC35 is 15 µM. Still for that read-out and setting: as for `COc1ccc(C2=Nn3c(nnc3-c3ccccc3Cl)SC2)cc1OC`, the figure is 15.5 µM; as for `COc1ccc(C2=Nn3c(nnc3-c3ccccc3)SC2)cc1OC`, 20.2 µM; as for `CC1(C)CC(c2nc(-c3ccc4ccc(-c5ccccc5)nc4c3)c3c(N)nccn23)C1`, 7.54 µM. Still for that read-out and setting: the result for `C=C([C@@H](O)[C@@H](C)O)[C@@H](OC)[C@]1(C)Cc2cc3cc(O[C@H]4CC(OC5CC(O)C(O)C(C)O5)C(O)C(C)O4)cc(O)c3c(O)c2C(=O)[C@H]1OC1CC(OC2CC(OC3CC(C)(O)C(O)C(C)O3)C(O)C(C)O2)C(O)C(C)O1` (stereo partly drawn) reads 0.116 µM.
